# Like-named read-outs stand apart in the source and are kept apart here.
# How the values were obtained:
# Format in all cases: cell-based
# [1] = test system: cytomegalo-virus (CMV); test: Cytopathic effect of CMV in primary foetal human fibroblasts
# Method: (§1) Compound XVII was added to primary foetal human fibroblasts in tissue culture, to yield final concentrations respectively of 50, 100 and 200 µg/mℓ. The cultures were then respectively inoculated with a high standard viral dose, with one tenth (1/10) of said standard dose and with one fiftieth (1/50) of said standard dose of cytomegalo-virus (CMV) and incubated for four days.
# The cytopathic effect of CMV was determined by microscopic visual inspection of the cell cultures, in terms of the extent of gross swelling of the cells, where: a = 0 - 25%, b = 25 - 50%, c = 50 - 75% and d = 75 - 100% of the cells affected by gross swelling.
# [2] = Toxicity: lymphocyte proliferation assay with MTT in the HIV-1 infected PBL cultures; settings: human, pbls, Table 8 (3 days incubation), read-out: Proliferation as a percentage of control value
# [3] = test system: primary foetal human fibroblasts; test: Signs of toxicity in the fibroblast cultures of the CMV test; settings: 200 µg/mℓ
# Method: as §1
# [4] = test system: human immunodeficiency virus type 1 (HIV-1); test: Inhibition of HIV-1 proliferation in PHA-activated human PBL's (p24 core protein by Sandwich ELISA, HIV RNA by labelled DNA probe hybridization); settings: for inhibition at 50 µg/mL: read-out: % inhibition:HIV-RNA, 50 μg/mℓ; for inhibition at 100 µg/mL: read-out: % inhibition:HIV-RNA, 100 μg/mℓ
# Method: Compounds I - XXVIII were subjected to in vitro testing for inhibition of human immunodeficiency virus type 1 (HIV-1) proliferation as follows:
# Human peripheral blood lymphocytes (PBL's) obtained by density gradient centrifugation of blood from healthy volunteers at a blood bank were pooled and used for the propagation of HIV-1 in vitro.
# The PBL's were polyclonally activated with phytohaemagglutinin (PHA) and subjected to quality controls whereby their viability was tested with Trypan blue exclusion and the expression of activation antigens, CD4⁺ and CD25⁺ was measured by immunofluorescence. Prior to adding the test substance, the activated PBL's were exposed to a standardized titre of HIV-1 virus and after incubation for 60 minutes the cells were washed twice and plated into microtitre plates at a concentration of 2X10⁶ cells/well. The medium contained interleukin-2 and in control wells the virus produced between 50 and 100 ng/mℓ of p24 core protein on day 4. The test substance was added to these cultures either in water or dimethyl sulphoxide (DMSO) depending on solubility characteristics. The final DMSO concentration, when used, was always 1% v/v.
# HIV replication was measured as the production of p24 core protein and the production of HIV RNA on days 2, 3 and 4, or on days 3, 4, 5 and 6. Core protein p24 was measured using 'Sandwich ELISA' technology using inter alia a monoclonal antibody against p24 core protein. The HIV RNA was measured using a specific labelled DNA probe against HIV RNA and the process of hybridization.
# Results were expressed as percent inhibition of HIV-1 p24 core protein production or RNA production on days 3, 4 or 6.
# In each test, cells were also exposed to HIV-1 and 3'-azido-3'-deoxythymidine (also known as Zidovudine or AZT) at 100, 10, 1 and 0.1 ng/mℓ. This was a positive control and compounds tested were compared to the inhibitory effect of 10 ng/mℓ AZT.
# In all of the following Tables, percentage inhibition refers to inhibition of p24 core protein production and HIV RNA production relative to infected controls. Percentage AZT inhibition refers to inhibition caused by 10 ng/mℓ AZT at the end of the experiment, i.e. after 4 or 6 days.
# [5] = Toxicity: lymphocyte proliferation assay with MTT in the HIV-1 infected PBL cultures; settings: human, pbls, Table 8 continued (6 days incubation), read-out: Proliferation as a percentage of control value
# Method: Possible toxic effects of the test substances were measured by viability testing using Trypan blue or a proliferation assay using3-(4,5-dimethylthiazol-2-yl)-2,5-diphenyl-2H-tetrazolium bromide (MTT) on day 4 or day 6 after initiation of the experiment (Borenfreund et al: Toxicol. In Vitro, 1988, 2, 1-6).
# The toxicity of the drug was expressed as a percentage inhibition of lymphocyte proliferation as measured with MTT and compared with controls receiving the virus but no drug.
# [6] = test system: respiratory syncytial virus (RSV); test: Inhibition of RSV syncytium formation in Hep-2 cells
# Method: Compound XVIII was added to Hep-2 cells growing as slope cultures in plastics tubes to give final concentrations respectively of 50, 100 and 200 µg/mℓ. The cultures were then respectively inoculated with a high standard viral dose, one tenth (1/10) of said standard dose, and one hundredth (1/100) of said standard dose of respiratory syncytial virus (RSV). After four days of incubation at 33°C the cells were visually inspected using an inverted phase contrast microscope and scored for the extent of syncytium formation, i.e. single cells containing three or more nuclei, as follows: a = 0 - 25%, b = 25 - 50%, c = 50 - 75% and d = 75 - 100% of cells having three or more nuclei.
# [7] = Human immunodeficiency virus 1, 72 h, 3 days incubation
# [8] = Human immunodeficiency virus 1, 144 h, 6 days incubation
smiles,measurement,setting,value
O=S(=O)(O)Oc1ccc(C#CC/C=C/c2ccc(OS(=O)(=O)O)c(O)c2)cc1O [Compound XVII],Extent of the Cytopathic Effect of Cytomegalo-Virus,"[1]; 50 µg/mℓ, viral dose 1/10, 4 days of incubation (virus control b+)",b (b = 25 - 50%)
same,Extent of the Cytopathic Effect of Cytomegalo-Virus,"[1]; 50 µg/mℓ, viral dose 1/50, 4 days of incubation (virus control a)",a (a = 0 - 25%)
same,Extent of the Cytopathic Effect of Cytomegalo-Virus,"[1]; 50 µg/mℓ, viral dose Full, 4 days of incubation (virus control c)",bc
same,Extent of the Cytopathic Effect of Cytomegalo-Virus,"[1]; 100 µg/mℓ, viral dose 1/10, 4 days of incubation (virus control b+)",ab
same,Extent of the Cytopathic Effect of Cytomegalo-Virus,"[1]; 100 µg/mℓ, viral dose 1/50, 4 days of incubation (virus control a)",a-
same,Extent of the Cytopathic Effect of Cytomegalo-Virus,"[1]; 100 µg/mℓ, viral dose Full, 4 days of incubation (virus control c)",bc
same,Extent of the Cytopathic Effect of Cytomegalo-Virus,"[1]; 200 µg/mℓ, viral dose 1/10, 4 days of incubation (virus control b+)",Nil
same,Extent of the Cytopathic Effect of Cytomegalo-Virus,"[1]; 200 µg/mℓ, viral dose 1/50, 4 days of incubation (virus control a)",Nil
same,Extent of the Cytopathic Effect of Cytomegalo-Virus,"[1]; 200 µg/mℓ, viral dose Full, 4 days of incubation (virus control c)",Nil
same,viability,[2]; 50 μg/mℓ,84%
same,viability,[2]; 100 μg/mℓ,80%
same,cultures showing signs of toxicity due to the compound,[3],5 out of 8
same,% inhibition:p24 core protein,"[4]; 50 μg/mℓ, 3 days incubation",47%
same,% inhibition:p24 core protein,"[4]; 50 μg/mℓ, 6 days incubation",87%
same,% inhibition:p24 core protein,"[4]; 100 μg/mℓ, 3 days incubation",88%
same,inhibition at 50 µg/mL,[4]; [7],68%
same,inhibition at 100 µg/mL,[4]; [7],93%
same,inhibition at 50 µg/mL,[4]; [8],91%
same,inhibition at 100 µg/mL,[4]; [8],100%
same,viability,[5]; 50 μg/mℓ,96%
same,viability,[5]; 100 μg/mℓ,94%
same,Extent of Syncytium Formation,"[6]; 50 µg/mℓ, viral dose 1/10, 4 days at 33°C (virus control c)",c (c = 50 - 75%)
same,Extent of Syncytium Formation,"[6]; 50 µg/mℓ, viral dose 1/100, 4 days at 33°C (virus control b)",a (a = 0 - 25%)
same,Extent of Syncytium Formation,"[6]; 50 µg/mℓ, viral dose Full, 4 days at 33°C (virus control d)",d (d = 75 - 100% of cells having three or more nuclei)
same,Extent of Syncytium Formation,"[6]; 100 µg/mℓ, viral dose 1/10, 4 days at 33°C (virus control c)",a (a = 0 - 25%)
same,Extent of Syncytium Formation,"[6]; 100 µg/mℓ, viral dose 1/100, 4 days at 33°C (virus control b)",Nil
same,Extent of Syncytium Formation,"[6]; 100 µg/mℓ, viral dose Full, 4 days at 33°C (virus control d)",c (c = 50 - 75%)
same,Extent of Syncytium Formation,"[6]; 200 µg/mℓ, viral dose 1/10, 4 days at 33°C (virus control c)",Nil
same,Extent of Syncytium Formation,"[6]; 200 µg/mℓ, viral dose 1/100, 4 days at 33°C (virus control b)",Nil
same,Extent of Syncytium Formation,"[6]; 200 µg/mℓ, viral dose Full, 4 days at 33°C (virus control d)",Nil
